Patent US20260014184A1, “ADENOSINE DERIVATIVES FOR USE IN THE TREATMENT OF NEURODEGENERATIVE DISORDERS AND CANCER” (UNIVERSITY COLLEGE CARDIFF CONSULTANTS LIMITED, priority 2022, published 2026)
“Also recorded” adds a separate entry of the source. Read-outs that look alike come from different tables or passages of the source.

Assays:
[1] = test system: Ub Ser65 phosphorylation; assay: Phospho-Ub (Ub Ser65) immunoblotting in parkin- or YFP-parkin-transfected HeLa cells; format: cell-based; conditions: immunoblot; for ubiquitin phosphorylation, niclosamide or CCCP only (controls): YFP-parkin HeLa cells, 10 μM, 1 h; for phosphorylation of Ub at Ser65, niclosamide or CCCP treatment alone (controls): 10 μM CCCP 3 h
Protocol: (§1) Both HeLa and parkin-overexpressed HeLa cells were maintained in DMEM high glucose (Gibco), 10% FBS (Sigma-Aldrich) at 37° C. with 5% CO2. For experiments, cells were counted and seeded into a range of culture plates, depending on the experiment, cell counting was done using the Cellometer Auto T4 with TrypanBlue (Gibco). […] Alternatively, HeLa cells were seeded in well plates and then transfected with […] of parkin cDNA using the PEI method once the plated cells reached 60% confluency. After 6 hours, the media was changed. Sub-culturing was done when the cells reached ˜90% confluency.
(§2) Cell culture with 70-80% confluency was lysed as follows: cells were washed with Phosphate Buffer Saline (PBS) (Sigma). 150 μl of lysis buffer was used on each well containing either: • 50 mM Tris-HCl pH 7.5, 1 mM EDTA, 1 mM EGTA, 0.27 M sucrose, 1 mM Na3VO4, 50 mM NaF, 5 mM Na pyrophosphate and fresh 1 mM benzamidine, 1% NP-40 and […]; or • 50 mM Tris-HCl pH 7.5, 1 mM EDTA, 1 mM EGTA, 10 mM Na β-glycerophosphate, 0.27 M sucrose, 1 mM Na3VO4, 50 mM NaF, 10 mM Na pyrophosphate with fresh 1 mM benzamidine, 1% Triton X-100, complete EDTA-free Protease Inhibitor, Phosphatase inhibitor cocktail 3 and 100 μM of 2-chloroacetamide.
(§3) The cells were scrapped and transferred to the microtube and eventually spun down at 12,000 rpm for 15 minutes at 4° C. Finally, the supernatant was transferred to the new microtubes and stored at −20° C. Protein concentration was measured using Bradford Assay. Serial concentrations 0.125; 0.25; 0.5 and 1 mg/ml of Bovine Serum Albumin (BSA) (Sigma Aldrich) were used as a standard. Samples were boiled at 90° C. for 5 minutes in SDS sample loading buffer.
The next day membranes were washed in TBST and incubated with horse radish peroxidase (HRP)-conjugated antibodies for 1 h at room temperature with agitation. Following TBST washes, proteins were visualised using Amersham™ ECL™ Prime kit (GE Biosciences) and imaged using the Bio-rad ChemicDoc. Primary antibodies used for western blotting; GAPDH (Abcam cat #ab9485), Phospho-Ub Ser 65 (Sigma-Aldrich cat #ABS1513-1), LC3B (Cell Signaling cat #3868S). Secondary antibodies used for western blotting; anti-rabbit HRP (Agilent Dako cat #P0399), anti-mouse HRP (Agilent Dako cat #P0260).
(§4) To explore this, we first treated parkin-transfected HeLa cells for 24 h with 50 μM kinetin, kinetin riboside or kinetin riboside ProTide, a monophosphate prodrug of kinetin riboside.

[2] = test system: OPA1; assay: OPA1 cleavage immunoblot (mitochondrial membrane depolarization) in parkin-transfected HeLa cells; format: cell-based; conditions: 10 μM CCCP 3 h
Protocol: as §1, §2, §3, §4

[3] = test system: Ub Ser65 phosphorylation; assay: Immunofluorescence for Ub Ser65 phosphorylation in YFP-parkin transfected HeLa cells; format: cell-based
Protocol: (§5) Cells were seeded on PerkinElmer PhenoPlate 96-well plates, followed by treatment with compounds. Cells were fixed in chilled 4% PFA for 10 min followed by washes in PBS. […] Following PBS washes, cells were blocked using blocking buffer (PBS, 5% BSA, 0.1% Tween20) for 1 h at room temperature. Primary antibodies were diluted in blocking buffer and added to cells to be incubated overnight at 4° C. Cells were subsequently washed with PBS-T and the appropriate secondary antibodies (diluted in blocking buffer) were added for 2 h at room temperature in darkness. 10 μg/ml of Hoechst 33258 stain was added with secondary antibodies when required. Cells were again washed with PBS-T followed by addition of PBS with 0.02% sodium azide. Cells were then stored at 4° C. until ready for imaging. Primary antibodies used for immunofluorescence are as follows: Phospho-Ub Ser 65 (Sigma-Aldrich cat #ABS1513-1), TOM20 (Santa-Cruz cat #sc-17764). Secondary antibodies and stains used in immunofluorescence; Anti-IgG2a Alexa Fluor™ 546 (ThermoFisher cat #A21133) Anti-rabbit Alexa Fluor™ 647 (ThermoFisher cat #A21244), Hoechst 33258 stain (Sigma-Aldrich cat #B2883).
(§6) Confocal microscopy was performed using a Zeiss LSM800 w/Airyscan fluorescent microscope equipped with lasers emitting at 405 nm, 488 nm, 561 nm and 640 nm. All images were captured using a 40x oil immersion objective lens and processed using Zeiss ZEN software. Images were analysed and quantified using Columbus (PerkinElmer) and TIBCO Spotfire software.
(§7) First, HeLa cells transfected with YFP-parkin were either left untreated or treated with 50 μM kinetin riboside, nucleosides 9a and 9c for 24 h.

[4] = test system: HeLa cells transfected with YFP-parkin; assay: Immunofluorescence for YFP-parkin localisation and TOM20 (mitochondrial fragmentation); format: cell-based
Protocol: as §5, §6, §7

[5] = test system: HeLa cells transfected with YFP-parkin; assay: TMRM fluorescence (mitochondrial membrane potential); format: cell-based
Protocol: For assessing tetramethylrhodamine methyl ester perchlorate (TMRM) fluorescence, cell media was removed and replaced with cell media consisting of 5 nM TMRM (ThermoFisher) and 10 μg/ml Hoechst 33258 stain for 30 mins in the dark at 37° C. to allow incorporation of TMRM into mitochondria. Following PBS washes, FluoroBrite DMEM (Gibco) media was added to cells, followed by subsequent imaging using a Zeiss LSM800 microscope at 37° C. with 5% CO2.

[6] = test system: immortalised MEF expressing PINK1 wild-type (WT); assay: MitoQC mitophagy assay, MEF expressing PINK1 wild-type; format: cell-based; conditions: 20 μM CCCP, 24 h
From the text: (§8) With the inhibition of ubiquitin phosphorylation and parkin localisation to the mitochondria by kinetin riboside and the nucleoside analogue 9c, we next asked whether these compounds still induce mitophagy in a PINK1 dependent manner. To explore this, we employed the established MitoQC assay for measuring mitophagy in cells^11,12.

[7] = test system: PINK1 KO MEFs; assay: MitoQC mitophagy assay, PINK1 knock-out MEF; format: cell-based; conditions: 20 μM CCCP, 24 h
From the text: as §8

[8] = test system: ubiquitin Ser65 phosphorylation; assay: Ubiquitin Ser65 phosphorylation in astrocytes with or without valinomycin; format: cell-based; conditions: for ubiquitin Ser65 phosphorylation after pre-treatment followed by valinomycin, compared to valinomycin alone: 50 μM 24 h, 50 nM valinomycin for 5 h; for ubiquitin Ser65 phosphorylation, compound alone: 50 μM, 24 h
Protocol: Briefly, astrocytes were treated with 50 μM of the nucleobase kinetin, nucleosides 9a and 9c or DMSO for 24 h and 5 h prior to lysis, the samples were treated with 50 nM valinomycin, a mitochondrial uncoupler.

[9] = molecular target: T1, PINK1 (Homo sapiens, UniProt Q9BXM7); assay: PINK1 activation in cells judged by parkin Ser65 phosphorylation (parkin-transfected HeLa cells); format: cell-based; conditions: 50 μM, 1 h
T1 construct: HeLa cells, which express PINK1 endogenously; endogenous in cells; host or cells: HeLa cells transiently transfected with parkin
T1 sequence (Q9BXM7 78-581): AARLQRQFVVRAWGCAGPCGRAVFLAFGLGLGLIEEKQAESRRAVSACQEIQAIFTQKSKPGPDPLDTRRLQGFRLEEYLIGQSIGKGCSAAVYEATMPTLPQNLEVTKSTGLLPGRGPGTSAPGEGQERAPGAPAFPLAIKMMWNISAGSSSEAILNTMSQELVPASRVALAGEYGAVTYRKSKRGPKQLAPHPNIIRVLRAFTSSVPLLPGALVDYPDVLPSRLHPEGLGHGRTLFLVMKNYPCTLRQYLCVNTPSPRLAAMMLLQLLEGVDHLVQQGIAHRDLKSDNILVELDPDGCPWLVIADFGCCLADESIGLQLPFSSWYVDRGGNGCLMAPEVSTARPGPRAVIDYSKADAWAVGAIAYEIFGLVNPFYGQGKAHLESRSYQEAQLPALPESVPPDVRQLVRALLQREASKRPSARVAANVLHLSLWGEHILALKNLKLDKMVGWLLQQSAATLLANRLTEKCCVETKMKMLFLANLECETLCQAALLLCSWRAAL
Protocol: as §1, §2, §3

[10] = molecular target: T1, PINK1; conditions: in presence of the de-polarizing agent CCCP; cited from earlier work
[11] = 50 μM, 24 h, no niclosamide or CCCP

## carbonyl cyanide m-chlorophenyl-hydrazine [CCCP, reference compound]
[1]
  ubiquitin phosphorylation, niclosamide or CCCP only (controls): induced strong ubiquitin phosphorylation
[1]; parkin-transfected HeLa cells
  phosphorylation of Ub at Ser65, niclosamide or CCCP treatment alone (controls): strong phosphorylation of Ub at Ser65
[2]
  OPA1 cleavage (mitochondrial membrane depolarization), niclosamide or CCCP alone: led to OPA1 cleavage; also recorded: associated with cleavage of OPA1
[3]
  phosphorylation of ubiquitin, niclosamide or CCCP alone: induced significant phosphorylation of ubiquitin; also recorded: induced strong ubiquitin phosphorylation
[4]; 10 μM CCCP
  parkin localisation to the mitochondria, CCCP treatment alone: promoted parkin localisation to the mitochondria
[5]
  mitochondrial membrane potential, niclosamide or CCCP: membrane potential collapse
[6]
  mitophagy in PINK1 WT MEFs, CCCP: induced an increase in mitophagy
[7]
  mitophagy in PINK1 KO MEFs, CCCP: not in PINK1 KO MEFs

## O=C(Nc1ccc([N+](=O)[O-])cc1Cl)c1cc(Cl)ccc1O [niclosamide, reference compound]
[1]
  ubiquitin phosphorylation, niclosamide or CCCP only (controls): induced strong ubiquitin phosphorylation
[1]; parkin-transfected HeLa cells
  phosphorylation of Ub at Ser65, niclosamide or CCCP treatment alone (controls): strong phosphorylation of Ub at Ser65
[2]
  OPA1 cleavage (mitochondrial membrane depolarization), niclosamide or CCCP alone: led to OPA1 cleavage
[3]; YFP-parkin HeLa cells, 10 μM, 1 h, immunofluorescence
  phosphorylation of ubiquitin, niclosamide or CCCP alone: induced significant phosphorylation of ubiquitin
[5]; 10 μM, data not shown
  mitochondrial membrane potential, niclosamide or CCCP: membrane potential collapse

## CNc1ncnc2c1ncn2[C@@H]1O[C@H](CO)[C@@H](O)[C@H]1O [9a, (2R,3S,4R,5R)-2-(hydroxymethyl)-5-(6-(methylamino)-9H-purin-9-yl)tetrahydrofuran-3,4-diol]
[3]; 50 μM 24 h, then 10 μM CCCP, immunofluorescence
  ubiquitin Ser65 phosphorylation after pre-treatment followed by CCCP, compared to CCCP alone: did not have a significant impact
[3]; 50 μM, 24 h, no niclosamide or CCCP, immunofluorescence
  impact on ubiquitin phosphorylation, compound alone: did not have any impact
[4]; 50 μM 24 h, then 10 μM CCCP
  parkin localisation to the mitochondria after pre-treatment followed by CCCP, compared to CCCP alone: did not have a significant impact
[4]; [11]
  impact on mitochondrial fragmentation (TOM20), compound alone: did not have any impact
  impact on parkin localisation, compound alone: did not have any impact
[8]
  ubiquitin Ser65 phosphorylation after pre-treatment followed by valinomycin, compared to valinomycin alone: significant suppression of ubiquitin Ser65 phosphorylation
  ubiquitin Ser65 phosphorylation, compound alone: increased phosphorylation

## CC(C)(C)CNc1ncnc2c1ncn2[C@@H]1O[C@H](CO)[C@@H](O)[C@H]1O [9f, (2R3S,4R,5R)-2-(hydroxymethyl)-5-(6-(neopentylamino)-9K-purin-9-yl)tetrahydrofuran-3,4-diol]
[9]
  activation of PINK1 as judged by parkin Ser65 phosphorylation: exhibited pronounced activation of PINK1 apart from compound 9f

## c1coc(CNc2ncnc3[nH]cnc23)c1 [kinetin, reference compound]
[1]; parkin-transfected HeLa cells, 50 μM 24 h, then 10 μM CCCP 3 h
  inhibition of CCCP-induced phosphorylation of ubiquitin by pre-treatment: did not
[1]; parkin-transfected HeLa cells, 50 μM, 24 h, no CCCP
  phosphorylation of ubiquitin (Ub Ser65), compound alone: did not lead to any notable phosphorylation of ubiquitin
[8]
  ubiquitin Ser65 phosphorylation after pre-treatment followed by valinomycin, compared to valinomycin alone: significant suppression of ubiquitin Ser65 phosphorylation
  ubiquitin Ser65 phosphorylation, compound alone: increased phosphorylation
[10]
  PINK1 activation in cells exposed to CCCP: enhanced PINK1 activation
